In patent US4530790A, “Cholecystokinin antagonists” (Merck & Co., Inc., priority 1983, dated 1985):
Each block holds one molecule with its values, some of them ahead of it.

Experiments:
CCK = experiment: Capacity to antagonize CCK, relative to the compound of Formula I; conditions: based on the activity of the compound of Formula I (1 x)
Description: The minor components A-D have also been tested for their capacity to antagonize CCK. Based on the activity of the compound of Formula I, the minor components relative activities are: […]

CCK receptor = target: T1, CCK receptor (Rattus norvegicus, UniProt P30551); experiment: CCK receptor binding (inhibition of specific 125I-CCK-33 binding to whole pancreas membranes); set-up: species or system Male Sprague-Dawley rats; conditions: for effect on the 125I-CCK receptor binding assay: added protease inhibitors, 1.2 mM phenylmethane sulfonyl fluoride, 0.5 mM o-phenanthroline in assay buffer; for IC50: rat pancreas, pH 7.7, 37° C., 30 minutes
T1 construct: The whole pancreas was dissected free of fat tissue and was homogenized; from tissue; host or cells: rat whole pancreas membranes
T1 sequence (P30551 1-444): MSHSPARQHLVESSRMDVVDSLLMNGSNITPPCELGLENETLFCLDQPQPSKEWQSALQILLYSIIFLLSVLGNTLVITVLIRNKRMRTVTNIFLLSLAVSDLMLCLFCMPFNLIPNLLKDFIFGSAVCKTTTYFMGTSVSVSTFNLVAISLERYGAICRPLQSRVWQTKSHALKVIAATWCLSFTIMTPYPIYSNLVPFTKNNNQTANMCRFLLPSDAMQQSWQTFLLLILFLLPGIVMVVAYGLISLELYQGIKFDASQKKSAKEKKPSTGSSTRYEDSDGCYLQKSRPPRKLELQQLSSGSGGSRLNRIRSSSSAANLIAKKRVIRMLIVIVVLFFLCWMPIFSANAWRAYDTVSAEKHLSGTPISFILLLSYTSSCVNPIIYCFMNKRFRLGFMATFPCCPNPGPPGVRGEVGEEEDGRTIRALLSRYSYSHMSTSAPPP
Experimental: CCK-33 was radiolabeled with ^125 I-Bolton Hunter reagent (2000 Ci/mmole) as described by Sankara et al. (J. Biol. Chem. 254: 9349-9351, 1979). Receptor binding was performed according to Innis and Snyder (Proc. Natl. Acad. Sci. 77: 6917-6921, 1980) with the minor modification of adding the additional protease inhibitors, phenylmethane sulfonyl fluoride and o-phenanthroline. The latter two compounds have no effect of the ^125 I-CCK receptor binding assay.
Male Sprague-Dawley rats (200-350 g) were sacrificed by decapitation. The whole pancreas was dissected free of fat tissue and was homogenized in 20 volumes of ice-cold 50 mM, Tris HCl (pH 7.7 at 25° C.) with a Brinkmann Polytron PT 10. The homogenates were centrifuged at 48,000 g for 10 min. Pellets were resuspended in Tris Buffer, centrifuged as above and resuspended in 200 volumes of binding assay buffer (50 mM Tris HCl, pH 7.7 at 25° C., 5 mM dithiothreitol, 0.1 mM bacitracin, 1.2 mM phenylmethane sulfonyl fluoride and 0.5 mM o-phenanthroline). For the binding assay, 25 μl of buffer (for total binding) or unlabeled CCK-8 sulfate to give a final concentration of 1 μM (for nonspecific binding) or the compound of Formula I (for determination inhibition of ^125 I-CCK binding) and 25 μl of ^125 I-CCK-33 (30,000-40,000 cpm) were added to 450 μl of the membrane suspensions in microfuge tubes. All assays were run in duplicate or triplicate. The reaction mixtures were incubated at 37° C. for 30 minutes and centrifuged in a Beckman Microfuge (4 minutes) immediately after adding 1 ml of ice-cold incubation buffer. The supernatant was aspirated and discarded, pellets were counted with a Beckman gamma 5000. For Scatchard analysis (Ann. N.Y. Acad. Sci. 51: 660, 1949), ^125 I-CCK-33 was progressively diluted with increasing concentrations of CCK-33.

[1] = target: T2, isolated longitudinal muscle of guinea pig ileum (CCK-8) (Cavia porcellus, UniProt Q63931); experiment: Isolated longitudinal muscle of guinea pig ileum, antagonism of CCK-8 induced contraction; set-up: species or system Male Hartley guinea pigs
T2 construct: Longitudinal muscle strips with attached nerve plexus were prepared; from tissue; host or cells: guinea pig ileum longitudinal muscle with attached nerve plexus
T2 sequence (Q63931 1-430): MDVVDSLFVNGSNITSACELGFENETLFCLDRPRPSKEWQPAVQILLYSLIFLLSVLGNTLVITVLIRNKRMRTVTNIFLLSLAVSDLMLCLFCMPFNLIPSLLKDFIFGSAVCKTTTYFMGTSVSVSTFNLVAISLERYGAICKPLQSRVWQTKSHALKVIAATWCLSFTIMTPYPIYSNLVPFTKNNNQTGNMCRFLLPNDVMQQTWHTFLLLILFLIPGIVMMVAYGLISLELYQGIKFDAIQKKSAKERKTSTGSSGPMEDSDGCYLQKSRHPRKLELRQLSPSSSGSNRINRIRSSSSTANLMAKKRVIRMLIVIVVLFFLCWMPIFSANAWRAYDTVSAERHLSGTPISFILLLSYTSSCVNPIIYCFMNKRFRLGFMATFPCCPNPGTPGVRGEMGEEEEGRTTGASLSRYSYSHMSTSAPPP
Experimental: Longitudinal muscle strips with attached nerve plexus were prepared as described previously (Brit J. Pharmac. 23:; 356-363, 1964; J. Physiol. 194: 13-33, 1969). Male Hartley guinea pigs were decapitated and the ileum was removed (10 cm of the terminal ileum was discarded and the adjacent 20 cm piece was used). A piece (10 cm) of the ileum was stretched on a glass pipette. Using a cotton applicator to stroke tangently away from the mesentery attachment at one end, the longitudinal muscle was separated from the underlying circular muscle. The longitudinal muscle was then tied to a thread and by gently pulling, stripped away from the entire muscle. A piece of approximately 2 cm was suspended in 5 ml organ bath containing Krebs solution and bubbled with 95% O2 and 5% CO2 at 37° C. under 0.5 g tension. CCK-8 was added cumulatively to the baths and EC50 and pA2 values determined as described in the gall bladder preparation (above).

[2] = Solubility characteristics; format: physicochemical
[3] = target: T3, isolated guinea pig gall bladder (CCK-8) (Cavia porcellus, UniProt Q63931); experiment: Isolated guinea pig gall bladder, antagonism of CCK-8 induced contraction; set-up: species or system Male Hartley guinea pigs
T3 construct: The whole gall bladder was dissected free from adjacent tissues; from tissue; host or cells: guinea pig gall bladder
T3 sequence (Q63931 1-430): T2 sequence (Q63931 1-430)
Experimental: Male Hartley guinea pigs (400-600 g) were sacrificed by decapitation. The whole gall bladder was dissected free from adjacent tissues and its content gently squeezed out. The whole bladder was suspended in 5 ml organ bath under 1 g tension. The organ bath contained a Kreb's bicarbonate solution (NaCl 118 mM, KCl 4.75 mM, CaCl 2.54 mM, KH2 PO4 1.19 mM, Mg SO4 1.2 mM, NaHCO3 25 mM and dextrose 11 mM) maintained at 32° C. and bubbled with 95% O2 and 5% CO2. Isometric contractions were recorded using Statham (60 g; 0.12 mm) strain gauges and a Hewlett-Packard (77588) recorder. The tissues were washed every 10 minutes for 1 hr to obtain equilibrium prior to the beginning of the study. CCK-8 was added cumulatively to the baths and EC50 's determined using regression analysis. After washout (every 10 minutes for 1 hr), the compound of Formula I was added at least 5 minutes before the addition of CCK-8 and the EC50 of CCK-8 in the presence of the compound of Formula I similarly determined. The PA2 values and slope were obtained from regression analysis of a Schild plot (Brit. J. Pharmacol. 14: 48-58, 1959) using three concentrations of the compound of Formula I and 3-4 tissues at each concentration.

Structure (SMILES): O=C1NC(Cc2c[nH]c3ccccc23)c2nc3ccccc3c(=O)n2-c2ccccc21 (stereo not drawn) [Component B]
relative activity to antagonize CCK (CCK): 1/7

Structure (SMILES): O=S(=O)(F)Cc1ccccc1 [phenylmethane sulfonyl fluoride, reference compound]
effect on the 125I-CCK receptor binding assay (CCK receptor): no effect

Structure (SMILES): CC(C)C[C@H]1C(=O)N2c3ccccc3[C@@](O)(C[C@@H]3NC(=O)c4ccccc4-n4c3nc3ccccc3c4=O)[C@H]2N1O [Component D]
relative activity to antagonize CCK (CCK): 5 x

Ki (CCK receptor; estimated, 125I-CCK-33 receptor binding, read-out: Ki value (dissociation constant of inhibitor)): 900 nM
IC50 (CCK receptor): 1310 nM
IC50 (CCK receptor; printed in parentheses): 1300 nM
mode of antagonism [1]: competitive antagonism of CCK
slope of the Schild plot ([1]; CCK-8): 0.89±0.20
Kb ([1]; CCK-8, read-out: pA2 value (Schild plot) (converted)): 398 nM
Ki ([1]; from Schild plot pA2, read-out: Ki corresponding to pA2 (converted)): 400 nM
solubility: insoluble in ([2]; H2O, hexane, pet. ether): insoluble in: H2 O, hexane, pet. ether
mode of antagonism ([3]; CCK-8): competitive antagonist of CCK-8
slope of the Schild plot ([3]; CCK-8): 0.95±0.19
Kb ([3]; CCK-8, three concentrations, 3-4 tissues each, read-out: pA2 value (Schild plot) (converted)): 1000 nM
Ki ([3]; from Schild plot pA2, read-out: Ki value corresponding to pA2 (converted)): 1000 nM
Structure (SMILES): CC(C)C[C@@H]1N[C@H]2N(C1=O)c1ccccc1[C@@]2(O)C[C@@H]1NC(=O)c2ccccc2-n2c1nc1ccccc1c2=O [Formula I]
effect on KD (dissociation constant) and Bmax (maximum receptor number) of 125I-CCK-33 (CCK receptor; Scatchard analysis, 1.3 μM): increased the KD (dissociation constant) without affecting the Bmax (maximum receptor number)
mode of inhibition of specific 125I-CCK-33 receptor binding (CCK receptor; Scatchard analysis, absence and presence of 1.3 μM): competitively inhibited specific ^125 I-CCK-33 receptor binding
effect on CCK-8 dose-response ([1]; 1.3-13 μM): concentration dependent parallel shift to the right of the CCK-8 dose-response without change in the maximal contractile response
relative activity to antagonize CCK (CCK): 1 x
solubility: soluble in ([2]; CHCl3, MeOH, EtOH, acetone, DMSO): soluble in: CHCl3, MeOH, EtOH, acetone, DMSO
effect on CCK-8 dose-response ([3]; 1.3-13 μM): concentration dependent parallel shift to the right of the CCK-8 dose-response without change in the maximal contractile response

Structure (SMILES): O=C1Nc2ccccc2-c2nc3ccccc3c(=O)n2C1Cc1c[nH]c2ccccc12 (stereo not drawn) [Component C]
relative activity to antagonize CCK (CCK): 1/30

Structure (SMILES): O=C1c2ccccc2-n2c(nc3ccccc3c2=O)[C@@H]2C[C@]3(O)c4ccccc4N[C@@H]3N12 [Component A]
relative activity to antagonize CCK (CCK): 1/70

effect on the 125I-CCK receptor binding assay (CCK receptor): no effect
Structure (SMILES): c1cnc2c(c1)ccc1cccnc12 [o-phenanthroline, reference compound]
